Reference: patent US7741472B2, “Polynucleotide containing a phosphate mimetic” (Roche Diagnostics Operations, Inc., priority 2005, dated 2010)
Values belong to the substance of their own block, whether it stands above or below them. Strand notation (5' to 3'): a small letter for the sugar, then the base; units joined by * are phosphorothioate-linked, units joined directly phosphodiester-linked; [ ] holds rarer units or linkages, { } end groups; capitals alone tell only the bases. [PNAc] = P=N-pPh-NAc phosphoramidate mimetic linkage (p1); {Fluorescein} = fluorescein label; d = 2'-deoxy (DNA)

Columns and labels:
[1] = system: factor V mutant sequence; test: Melting curve analysis of donor probes, mutant; type: binding; details: melting temperature of donor probe for factor V mutant sequence; in °C (unit assumed)
Protocol: A quantitative real time PCR of factor V DNA with subsequent melting curve analysis was carried out on a […] 1.2 instrument (Roche Diagnostics GmbH) in order to analyse the effect of phosphate mimetics on hybridization. Primers were used in combination with a pair of fluorescein/[…] Red 640 FRET hybridization probes. The primers and the 5′ […] Red 640 probe were kept constant. […] The effect on the crossing point which is a measure for the amplification efficiency and the effect on the melting point were evaluated.
After the amplification a melting curve analysis was carried out according to the instructions of the […] manual (Roche Applied Sciences).
(§1) The following temperature program was used:
(§2) The absolute fluorescence signals are measured as above in the 640 nm channel and subsequently the first derivative was calculated from this.

[2] = system: factor V wild type sequence; test: Melting curve analysis of donor probes, wild type; type: binding; details: melting temperature of donor probe for factor V wild type sequence; in °C (unit assumed)
Protocol: (§3) A quantitative real time PCR of factor V DNA with subsequent melting curve analysis was carried out on a LIGHTCYCLER 1.2 instrument (Roche Diagnostics GmbH) in order to analyse the effect of phosphate mimetics on hybridization. Primers were used in combination with a pair of fluorescein/LIGHTCYCLER Red 640 FRET hybridization probes. The primers and the 5′ LIGHTCYCLER Red 640 probe were kept constant. The various 3′ fluorescein probes modified on the phosphate from example 4 and the unmodified fluorescein probe as a reference were used as FRET donor probes. The effect on the crossing point which is a measure for the amplification efficiency and the effect on the melting point were evaluated.
After the amplification a melting curve analysis was carried out according to the instructions of the LIGHTCYCLER manual (Roche Applied Sciences).
as §1, §2
(§4) The crossing points are shown in the following table as a measure for the amplification efficiency when using different modified donor probes.

[3] = system: factor V DNA; test: Real time PCR of factor V DNA with modified FRET donor probes (crossing point); type: biochemical; details: LIGHTCYCLER 1.2, 106 copies of plasmid, 200 nM FRET probes, 640 nm channel
Protocol: as §3
20 μl of a PCR reaction mixture was prepared as follows for the amplification of a factor V DNA fragment.
106 copies of a plasmid which contains the factor V wild type gene and mutants (Gene Bank Accession No. M 014335)
500 nM each primers having the SEQ ID NO: 1 and 2
200 nM each FRET hybridization probes having the SEQ ID NO: 3 and 4
The LIGHTCYCLER DNA Master Hyb Probes Kit (Roche Applied Science, Cat. No. 2158825) was used for all other PCR components according to the manufacturer's instructions.
The following sequences were used as primers and probes: […]
The following temperature program was used for the amplification on the LIGHTCYCLER 1.2 (Roche Applied Science).
(§5) The real time monitoring was carried out over 45 cycles using the 2nd derivative threshold method in which the fluorescence signal was measured in a detection channel that is specific for the LIGHTCYCLER Red 640 emission (at 640 nm) and the arithmetic background correction mode was used to normalize the initial signal.
as §4

[4] = system: human Factor V DNA; test: Real time PCR with modified primers (crossing point); type: biochemical; details: LIGHTCYCLER 1.2, primer combinations SEQ ID NO: 1 / SEQ ID NO: 2, 640 nm channel
Protocol: A quantitative real time PCR of human Factor V DNA was carried out on a LIGHTCYCLER 1.2 instrument (Roche Diagnostics GmbH) in order to analyse the effect of phosphate mimetics on primer elongation. The P═N-pPh-NAc mimetic which was introduced at different positions of a primer pair used for amplification of human Factor V DNA. The modified primers were, synthesized according to example 4. Purification was done by the Reversed Phase chromatography of example 3 in the Trityl on mode. Detritylation was performed by treating with 80% acetic acid for 20 min.
This primers were used in combination with a pair of fluorescein/LIGHTCYCLER Red 640 FRET hybridization probes according to example 6. The Fluorescein probe and the 5′ LIGHTCYCLER Red 640 probe (SEQ ID NO: 3 and 4) were kept constant. Various combinations of modified and unmodified primers were tested. As reference unmodified primers were used. The effect on the crossing point which is a measure for the amplification efficiency was evaluated.
as §5, with “which,” for “which”
The absolute fluorescence signals are measured as above in the 640 nm channel and subsequently the first derivative was calculated from this. The crossing points are shown in the following table as a measure for the amplification efficiency when using different modified primers.

[5] = Stability of dinucleotides at different temperatures and pH, reverse phase HPLC; type: physicochemical; details: for stability: pH 7.0, 8.0 and 9.0, 24 h at rt, 1 h at 95° C.
Protocol: dA(P(═NSO2PhNHAc)dT was synthesized and purified according to example 1) dAdT was also synthesized according to example 1, but standard oxidizers were used (0.02 M iodine in THF).
The dimers were exposed for different times and temperatures in 10 mM Tris buffer at different pH values 7.0, 8.0, and 9.0. Samples were left at room temperature (approx. 24° C.) for 24 h or at 95° C. for 60 min respectively 16 h. 150 μL aliquots were removed before and after the experiment and 100 μL volumes were injected on the HPLC.
The decomposition was monitored by reverse phase HPLC on an analytical X-Bridge column (2.5 μm, 4.6×50 mm i.d.) with a Waters 2690 separation module. Detection was carried out with a Waters 2996 PAD Detector (260 nm). A mobile phase of 0.1 M triethylammonium acetate (pH 6.8) pumped with a 95% gradient of acetonitrile at flow rate of 1.0 ml/min was used. The destruction rate of the dimers was judged by monitoring the retention time rt of the dimer signal (Software Millenium, Waters) and determining whether additional peaks with retention times different than that, of the nucleotide dimer occur.

[6] = pH 7.0, 10 mM Tris, 1 h at 95° C. (dry oven)
[7] = pH 7.0, 10 mM Tris, 16 h at 95° C. (dry oven)
[8] = pH 7.0, 10 mM Tris, 24 h at rt (24° C.)
[9] = pH 7.0, 10 mM Tris, starting solution
[10] = pH 8.0, 10 mM Tris, 1 h at 95° C. (dry oven)
[11] = pH 8.0, 10 mM Tris, 16 h at 95° C. (dry oven)
[12] = pH 8.0, 10 mM Tris, 24 h at rt (24° C.)
[13] = pH 8.0, 10 mM Tris, starting solution
[14] = pH 9.0, 10 mM Tris, 1 h at 95° C. (dry oven)
[15] = pH 9.0, 10 mM Tris, 16 h at 95° C. (dry oven)
[16] = pH 9.0, 10 mM Tris, 24 h at rt (24° C.)
[17] = pH 9.0, 10 mM Tris, starting solution

Substance: 5′ Ap1ATACCTGTATTCCTCGCCTGTC fluorescein-3′: Example 4 fluorescein probe SEQ ID NO: 4; p1 is a P = N-pPh-NAc mimetic (DNA dA[PNAc]dAdTdAdCdCdTdGdTdAdTdTdCdCdTdCdGdCdCdTdGdTdC-{Fluorescein})
- Tm mt [1]: 56.80
- Tm wt [2]: 64.80
- Cp (crossing point, measure for the amplification efficiency) [3]: 22.51

Substance: 5′ AATACCTGTATTCCTCGCCTGTp1C fluorescein-3′: Example 4 fluorescein probe SEQ ID NO: 4; p1 is a P = N-pPh-NAc mimetic (DNA dAdAdTdAdCdCdTdGdTdAdTdTdCdCdTdCdGdCdCdTdGdT[PNAc]dC-{Fluorescein})
- Tm mt [1]: 56.26
- Tm wt [2]: 64.32
- Cp (crossing point, measure for the amplification efficiency) [3]: 22.61

Substance: 5′ GAGAGACATCGCCTCTGGGCT p1A / 5′ TGTTATCACACTGGTGCTAA: primer combination; p1 is a P = N-pPh-NAc mimetic
- Cp (crossing point, measure for the amplification efficiency) [4]: 20.80

Substance: 5′ AATACCTGTATTCCTCGCCTGTC-fluorescein-3′ (ref): unmodified fluorescein FRET donor probe SEQ ID NO: 4, used as a reference (DNA dAdAdTdAdCdCdTdGdTdAdTdTdCdCdTdCdGdCdCdTdGdTdC-{Fluorescein}) [reference compound]
- Tm mt [1]: 56.98
- Tm wt [2]: 64.92
- Cp (crossing point, measure for the amplification efficiency) [3]: 22.11

Substance: 5′ GAGAGACATCGCCTCTGGGCTA / 5′ TGTTATCACACTGGTGCTAA: unmodified primer pair SEQ ID NO: 1 and 2, used as reference (DNA 1 GAGAGACATCGCCTCTGGGCTA; DNA 2 TGTTATCACACTGGTGCTAA; unmodified DNA) [reference compound]
- Cp (crossing point, measure for the amplification efficiency) [4]: 20.36

- decomposition ([5]; after 16 h at 95° C. at pH 7.0): started decomposing
- rtHPLC (retention time of the dimer signal) [5, 6]: rtHPLC = 2.99
- additional peaks (decomposition) [5, 7]: 2 new peaks t = 1.2, 2.0.
- rtHPLC (retention time of the dimer signal) [5, 7]: rtHPLC = 2.99
- rtHPLC (retention time of the dimer signal) [5, 8]: rtHPLC = 2.93
- rtHPLC (retention time of the dimer signal) [5, 9]: rtHPLC = 2.93
- stability [5]: stable
- rtHPLC (retention time of the dimer signal) [5, 10]: rtHPLC = 2.92
- rtHPLC (retention time of the dimer signal) [5, 11]: rtHPLC = 2.92
- rtHPLC (retention time of the dimer signal) [5, 12]: rtHPLC = 2.96
- rtHPLC (retention time of the dimer signal) [5, 13]: rtHPLC = 2.96
- rtHPLC (retention time of the dimer signal) [5, 14]: rtHPLC = 2.95
- rtHPLC (retention time of the dimer signal) [5, 15]: rtHPLC = 2.95
- rtHPLC (retention time of the dimer signal) [5, 16]: rtHPLC = 2.92
- rtHPLC (retention time of the dimer signal) [5, 17]: rtHPLC = 2.92
Substance: dA(P(═NSO2PhNHAc)dT [dA(P(=NSO2PhNHAc)dT]

Substance: 5′ AATACCTGTATTp1Cp1Cp1Tp1Cp1Gp1Cp1Cp1Tp1Gp1Tp1C-fluorescein-3′: Example 4 fluorescein probe SEQ ID NO: 4, multiply modified; p1 is a P = N-pPh-NAc mimetic (DNA dAdAdTdAdCdCdTdGdTdAdTdT[PNAc]dC[PNAc]dC[PNAc]dT[PNAc]dC[PNAc]dG[PNAc]dC[PNAc]dC[PNAc]dT[PNAc]dG[PNAc]dT[PNAc]dC-{Fluorescein})
- Tm mt [1]: 52.14
- Tm wt [2]: 60.74
- Cp (crossing point, measure for the amplification efficiency) [3]: 21.91

- decomposition ([5]; after 16 h at pH 7.0 and pH 8.0): started decomposing
- rtHPLC (retention time of the dimer signal) [5, 6]: rtHPLC = 2.48
- additional peaks (decomposition) [5, 7]: 1 new peak t = 6.2
- rtHPLC (retention time of the dimer signal) [5, 7]: rtHPLC = 2.42
- rtHPLC (retention time of the dimer signal) [5, 8]: rtHPLC = 2.39
- rtHPLC (retention time of the dimer signal) [5, 9]: rtHPLC = 2.39
- stability [5]: stable
- rtHPLC (retention time of the dimer signal) [5, 10]: rtHPLC = 2.42
- additional peaks (decomposition) [5, 11]: 1 new peak 6.2
- rtHPLC (retention time of the dimer signal) [5, 11]: rtHPLC = 2.41
- rtHPLC (retention time of the dimer signal) [5, 12]: rtHPLC = 2.38
- rtHPLC (retention time of the dimer signal) [5, 13]: rtHPLC = 2.38
- rtHPLC (retention time of the dimer signal) [5, 14]: rtHPLC = 2.42
- rtHPLC (retention time of the dimer signal) [5, 15]: rtHPLC = 2.43
- rtHPLC (retention time of the dimer signal) [5, 16]: rtHPLC = 2.41
- rtHPLC (retention time of the dimer signal) [5, 17]: rtHPLC = 2.41
Substance: dAdT

Substance: 5′ Ap1Ap1Tp1ACCTGTATp1Tp1Cp1CTCGCCTp1Gp1Tp1C-fluorescein-3′: Example 4 fluorescein probe SEQ ID NO: 4, multiply modified; p1 is a P = N-pPh-NAc mimetic (DNA dA[PNAc]dA[PNAc]dT[PNAc]dAdCdCdTdGdTdAdT[PNAc]dT[PNAc]dC[PNAc]dCdTdCdGdCdCdT[PNAc]dG[PNAc]dT[PNAc]dC-{Fluorescein})
- Tm mt [1]: 52.83
- Tm wt [2]: 61.40
- Cp (crossing point, measure for the amplification efficiency) [3]: 22.00

Substance: 5′ AATACCTGp1TATTCCTCp1GCCTGTC-fluorescein-3′: Example 4 fluorescein probe SEQ ID NO: 4, two-fold modified; p1 is a P = N-pPh-NAc mimetic (DNA dAdAdTdAdCdCdTdG[PNAc]dTdAdTdTdCdCdTdC[PNAc]dGdCdCdTdGdTdC-{Fluorescein})
- Tm mt [1]: 55.89
- Tm wt [2]: 64.28
- Cp (crossing point, measure for the amplification efficiency) [3]: 22.26

Substance: 5′ Ap1Ap1Tp1Ap1Cp1Cp1Tp1Gp1Tp1Ap1Tp1TCCTCGCCTGTC-fluorescein-3′: Example 4 fluorescein probe SEQ ID NO: 4, multiply modified; p1 is a P = N-pPh-NAc mimetic (DNA dA[PNAc]dA[PNAc]dT[PNAc]dA[PNAc]dC[PNAc]dC[PNAc]dT[PNAc]dG[PNAc]dT[PNAc]dA[PNAc]dT[PNAc]dTdCdCdTdCdGdCdCdTdGdTdC-{Fluorescein})
- Tm mt [1]: 52.19
- Tm wt [2]: 60.69
- Cp (crossing point, measure for the amplification efficiency) [3]: 21.40
